Reference: US11147765B1, “Instantly dissolving buccal films” (King Abdulaziz University, priority 2020, dated 2021)
Where a name gives a salt, the structure may show the parent alone.

Tests used:
[1] = Dissolution screening of DPX and its physical mixtures with organic acids and cyclodextrins; format: physicochemical; conditions: phosphate buffer pH 6.8, 37±0.5° C., in absence of excipients
Experimental: Various organic acids (CA, MA, and TA) and cyclodextrins β3-CD and HP-β-CD) were assessed as acidifiers and hydrophilic solubilizers to enhance the dissolution of DPX. Equivalent amounts of DPX and each of the studied excipients were thoroughly mixed for 5 min. The dissolution behavior of specified quantity of each mixture equivalent to 30 mg DPX was done in 900 mL phosphate buffer (pH 6.8) using USP Dissolution Tester, apparatus II (DT 720, Erweka, Germany) operating at 50 rpm at 37±0.5° C.. Aliquot samples were withdrawn after 2 and 15 minutes and replaced with equal volume of fresh buffer. Samples were filtered through a 0.22 μm Millipore filter, and the concentration of DPX was quantified spectrophotometrically at 292 nm (UV-2600 PC; Shimadzu, Kyoto, Japan). The dissolution study was done in triplicate.

[2] = reported [26]; cited from earlier work

CN(C)[C@@H](CCOc1cccc2ccccc12)c1ccccc1 [DPX, Dapoxetine hydrochloride]
percent dissolved after 2 minutes [1]: 2.13±0.09% | percent dissolved after 15 minutes [1]: 2.89±0.06% | solubility in phosphate buffer pH 6.8 [2]: 0.26 μg·mL^−1
